Assay results reported in patent publication US20260250325A1, “Antiviral Polypeptide Membrane Fusion Inhibitor, and Preparation Method and Application Thereof” (priority 2025, published 2026).
Where a SMILES comes first, the peptide text is derived from it. The star is where a group is joined. X1 = CC(C)CCCC(C)C1CCC2C3CC=C4CC(OC(=O)CCC(=O)*)CCC4(C)C3CCC12C

Assays:
RSV A long virus strain = assay type: cell-based; details: RSV A long virus strain, HEp-2 cells, plaque reduction, 1 day; read-out: IC50
Protocol: In this embodiment, an RSV-A long virus strain was used as an infection virus in the present disclosure. The anti-RSV activity of the synthesized polypeptide was determined through CPE detection.
The inhibitory activity of the compounds of Table 1-1-Table 1-5, positive polypeptide in Table 1-11, and positive control T-118 against the RSV-A long virus strain was detected.
(§1) Human Epithelial Pharyngeal Carcinoma Cells (HEp-2) were from the American Type Culture Collection (ATCC), with a catalog number CCL-23. The cells were cultured in a DMEM culture solution in which 10% fetal bovine serum, 1% sodium pyruvate, 1% nonessential amino acids, 2 mM glutamine, 100 U/mL penicillin, and 100 μg/mL streptomycin were added. The RSV A long virus strain was from the ATCC, with a catalog number VR-26.
This study used a plaque reduction experiment to detect the in-vitro activity of a test sample against the RSV A long virus strain. The test sample and a control compound were tested at 8 concentrations in duplicated wells. The HEp-2 cells were digested with trypsin and then diluted to a concentration of 300,000 cells per milliliter by using an experimental culture solution. The diluted cells were added to a 96-well cell test board, with 100 μL per well, corresponding to 30000 cells per well. The cells were cultured overnight in a 37° C. incubator with 5% CO2. On the second day, the test sample was diluted in an experimental culture medium at a fold ratio. The sample diluted at a fold ratio and an equal volume of virus (100 PFU per well) were well mixed and incubated at 37° C. in 5% CO2 for 1 h. Then, the culture solution in the 96-well cell test board was discarded, the sample virus mixed solution (200 μL) was added to the 96-well cell culture plate, and incubated at 37° C. in 5% CO2 for 2 hours. After 2 h, the sample virus mixed solution was discarded, and 200 μL of maintenance culture medium containing 0.8% CMC and the corresponding concentration of the test sample was added. A cell control (cells, without compound treatment or viral infection) and a viral control (cell infection virus, without compound treatment) were set. The cells were cultured for 1 day in the 37° C. incubator with 5% CO2. One day after viral infection, the culture medium was discarded, the cells were fixed with 4% paraformaldehyde, and then permeabilization was performed with 0.5% Triton X-100. After the plate was washed with DPBS, an RSV-specific antibody (RSV antibody, diluted 1:3000) was added and incubated at 37° C. for 1 h. Then, a secondary antibody (donkey anti-goat IgG, diluted 1:500) and incubated at 37° C. for 1 h. The secondary antibody was discarded, a TrueBlue solution was added, dyeing was performed for 10 min; and the plate was washed with running water and then air-dried, and the number of spots in each well was counted by using a microplate imaging counter. Raw data was used for calculating the antiviral activity of the samples.
(§2) The raw data for plaque counts and cell viability tests were used for analyzing the antiviral activity and cytotoxicity of the test samples, respectively. A calculation formula was shown as follows.
% inhibition rate=100−(sample value-cell control average value)/(virus control average value-cell control average value)×100%
(§3) Non-linear fitting analysis was performed on the inhibition rate of the sample by using GraphPad Prism (version 10), so as to calculate the IC50 and CC50 values for the sample.
IC50: in an in-vitro antiviral activity experiment, IC50 represented an inhibition ability indicator of a compound to be tested against the Hep-2 cells infected by the RSV A long virus strain.

[1] = Cytotoxicity test in HEp-2 cells (CCK8 cell viability); assay type: cell-based; details: human; HEp-2 cells, CCK8, 1 day; read-out: CC50
Protocol: as §1
A cytotoxicity test and an antiviral test were performed in parallel. The HEp-2 cells were inoculated in the microplate at a density of 30,000 cells per well, and cultured overnight in the 37° C. incubator with 5% CO2. On the next day, the diluted test sample was added. The cell control (cells, without compound treatment) and a culture solution control (culture solution only, without cell or compound treatment) were set. A final concentration of DMSO in the culture solution was 0.5%. The cells were cultured for 1 day in the 37° C. incubator with 5% CO2. Cell viability was detected by using a cell viability detection kit CCK8.
as §2
cell survival rate=(sample value-culture medium control average value)/(cell control average value-culture medium control average value)×100
as §3
CC50: in the in-vitro antiviral activity experiment, CC50 was used to measure the toxicity of the compound to be tested to the Hep-2 cells. To be precise, when the compound to be tested was at a specific concentration, 50% of the Hep-2 cells was caused to die, and this concentration was defined as the CC50. A fitting formula was log (inhibitor) vs. response-Variable slope (four parameters).

Row | SMILES | IC50 (RSV A long virus strain) | CC50 at 1 day [1]
1 | CC[C@H](C)[C@H](NC(=O)[C@H](CCCCN)NC(=O)[C@H](CCC(=O)O)NC(=O)[C@H](CC(C)C)NC(=O)[C@H](CO)NC(=O)[C@H](CCC(N)=O)NC(=O)[C@H](CC(N)=O)NC(=O)[C@@H](NC(=O)[C@H](CCCCN)NC(=O)[C@H](CCC(=O)O)NC(=O)[C@H](CC(N)=O)NC(=O)[C@@H](NC(=O)[C@H](CCC(N)=O)NC(=O)[C@H](CO)NC(=O)[C@H](C)NC(=O)[C@H](CC(=O)O)NC(=O)[C@H](Cc1ccccc1)NC(=O)[C@@H](NC(=O)[C@H](CC(C)C)NC(=O)[C@H](CCC(=O)O)NC(=O)[C@H](CC(=O)O)NC(=O)[C@H](Cc1ccc(O)cc1)NC(C)=O)C(C)C)C(C)C)[C@@H](C)CC)C(=O)N[C@@H](CCCNC(=N)N)C(=O)N[C@@H](CCCCN)C(=O)N[C@@H](CO)C(=O)N[C@@H](CC(=O)O)C(=O)N[C@@H](CCC(=O)O)C(=O)N[C@@H](CC(C)C)C(=O)N[C@@H](CC(C)C)C(=O)N[C@@H](Cc1c[nH]cn1)C(=O)N[C@@H](CC(N)=O)C(=O)N[C@H](C(N)=O)C(C)C [Compound 23] (Ac-YDELVFDASQVNEKINQSLEKIRKSDELLHNV-NH2) | 2.33 µM | > 8 µM
2 | CC[C@H](C)[C@H](NC(C)=O)C(=O)N[C@@H](CC(C)C)C(=O)N[C@@H](CCC(=O)O)C(=O)N[C@@H](CC(C)C)C(=O)N[C@H](C(=O)N[C@@H](CC(N)=O)C(=O)N[C@@H](CCCCN)C(=O)N[C@@H](CCCCN)C(=O)N[C@H](C(=O)N[C@@H](CCC(=O)O)C(=O)N[C@@H](CCC(N)=O)C(=O)N[C@@H](CO)C(=O)N[C@@H](CC(C)C)C(=O)N[C@@H](CCCCN)C(=O)N[C@@H](Cc1ccccc1)C(=O)N[C@H](C(=O)N[C@@H](CCC(=O)O)C(=O)N[C@@H](CCCCN)C(=O)N[C@@H](CO)C(=O)N[C@@H](CC(=O)O)C(=O)N[C@@H](CCCCN)C(=O)N[C@@H](CC(C)C)C(=O)N[C@@H](CC(C)C)C(=O)N[C@@H](CCC(=O)O)C(=O)N[C@@H](CC(N)=O)C(=O)N[C@@H](CCC(=O)O)C(=O)N[C@@H](C)C(=O)N[C@@H](C)C(=O)N[C@@H](C)C(=O)N[C@@H](CCCCN)C(=O)N[C@@H](CCCCNC(=O)CCC(=O)OC1CCC2(C)C(=CCC3C2CCC2(C)C(C(C)CCCC(C)C)CCC32)C1)C(N)=O)[C@@H](C)CC)[C@@H](C)CC)C(C)C (stereo partly drawn) [Compound 32] (Ac-ILELVNKKIEQSLKFIEKSDKLLENEAAAKK(X1)-NH2) | 0.296 µM | > 8 µM
3 | CC[C@H](C)[C@H](NC(=O)[C@H](CCCCN)NC(=O)[C@H](CCCCN)NC(=O)[C@H](CC(C)C)NC(=O)[C@H](CO)NC(=O)[C@H](CCC(=O)O)NC(=O)[C@H](CCC(=O)O)NC(=O)[C@@H](NC(=O)[C@H](CCCCN)NC(=O)[C@H](CCCCN)NC(=O)[C@H](CC(N)=O)NC(=O)[C@@H](NC(=O)[C@H](CCC(=O)O)NC(=O)[C@H](CCC(=O)O)NC(=O)[C@@H](NC(=O)[C@H](CCCCN)NC(=O)[C@H](CCCCN)NC(=O)[C@H](CCCCN)NC(=O)[C@H](CC(=O)O)NC(=O)[C@H](Cc1ccccc1)NC(=O)[C@H](CCC(=O)O)NC(=O)[C@H](CC(=O)O)NC(C)=O)[C@@H](C)CC)C(C)C)[C@@H](C)CC)C(=O)N[C@@H](CCC(=O)O)C(=O)N[C@@H](CCC(=O)O)C(=O)N[C@@H](CO)C(=O)N[C@@H](CC(=O)O)C(=O)N[C@@H](CCCCN)C(=O)N[C@@H](CCCCN)C(=O)N[C@@H](CC(C)C)C(=O)N[C@@H](CCC(=O)O)C(=O)N[C@@H](CCC(=O)O)C(=O)N[C@H](C(N)=O)C(C)C [Compound 3] (Ac-DEFDKKKIEEVNKKIEESLKKIEESDKKLEEV-NH2) | 4.43 µM | > 8 µM
4 | CC[C@H](C)[C@H](NC(=O)[C@H](CCC(=O)O)NC(=O)[C@H](CCC(=O)O)NC(=O)[C@H](CC(C)C)NC(=O)[C@H](CO)NC(=O)[C@H](CCC(N)=O)NC(=O)[C@H](CC(N)=O)NC(=O)[C@@H](NC(=O)[C@H](CCCCN)NC(=O)[C@H](CC(C)C)NC(=O)[C@H](CO)NC(=O)[C@H](CCC(N)=O)NC(=O)[C@H](CCC(=O)O)NC(=O)[C@@H](NC(=O)[C@H](CCCCN)NC(=O)[C@H](CCCCN)NC(=O)[C@H](CC(N)=O)NC(=O)[C@@H](NC(=O)[C@H](CCC(=O)O)NC(=O)[C@H](CCC(=O)O)NC(=O)[C@H](CC(=O)O)NC(=O)[C@H](Cc1ccccc1)NC(C)=O)C(C)C)[C@@H](C)CC)[C@@H](C)CC)C(=O)N[C@@H](CCCNC(=N)N)C(=O)N[C@@H](CCCCN)C(=O)N[C@@H](CO)C(=O)N[C@@H](CCC(=O)O)C(=O)N[C@@H](C)C(=O)N[C@@H](C)C(=O)N[C@@H](C)C(=O)N[C@@H](CCCCN)C(=O)N[C@@H](CCCCNC(=O)CCC(=O)OC1CCC2(C)C(=CCC3C2CCC2(C)C(C(C)CCCC(C)C)CCC32)C1)C(N)=O (stereo partly drawn) [Compound 34] (Ac-FDEEVNKKIEQSLKINQSLEEIRKSEAAAKK(X1)-NH2) | > 2 µM | 1.5 µM
5 | CC[C@H](C)[C@H](NC(=O)[C@H](CCCCN)NC(=O)[C@H](CCCCN)NC(=O)[C@H](CC(C)C)NC(=O)[C@H](CO)NC(=O)[C@H](CCC(=O)O)NC(=O)[C@H](CCC(=O)O)NC(=O)[C@@H](NC(=O)[C@H](CCCCN)NC(=O)[C@H](CCCCN)NC(=O)[C@H](CC(N)=O)NC(=O)[C@@H](NC(=O)[C@H](CCC(=O)O)NC(=O)[C@H](CCC(=O)O)NC(=O)[C@@H](NC(=O)[C@H](CCCCN)NC(=O)[C@H](CCCCN)NC(=O)[C@H](CC(=O)O)NC(=O)[C@H](Cc1ccccc1)NC(=O)[C@H](CCC(=O)O)NC(=O)[C@H](CC(=O)O)NC(=O)[C@H](Cc1c[nH]c2ccccc12)NC(C)=O)[C@@H](C)CC)C(C)C)[C@@H](C)CC)C(=O)N[C@@H](CCC(=O)O)C(=O)N[C@@H](CCC(=O)O)C(=O)N[C@@H](CO)C(=O)N[C@@H](CC(=O)O)C(=O)N[C@@H](CCCCN)C(=O)N[C@@H](CCCCN)C(=O)N[C@@H](CC(C)C)C(=O)N[C@@H](CCC(=O)O)C(=O)N[C@@H](CCC(=O)O)C(=O)N[C@H](C(=O)N[C@@H](CC(N)=O)C(=O)N[C@@H](CCCCN)C(=O)N[C@@H](CCCCN)C(=O)N[C@@H](CC(C)C)C(N)=O)C(C)C [Compound 5] (Ac-WDEFDKKIEEVNKKIEESLKKIEESDKKLEEVNKKL-NH2) | 1.12 µM | > 8 µM
6 | CC[C@H](C)[C@H](NC(=O)[C@H](CCCCN)NC(C)=O)C(=O)N[C@@H](CCC(=O)O)C(=O)N[C@@H](CCC(=O)O)C(=O)N[C@H](C(=O)N[C@@H](CC(N)=O)C(=O)N[C@@H](CCCCN)C(=O)N[C@@H](CCCCN)C(=O)N[C@H](C(=O)N[C@@H](CCC(=O)O)C(=O)N[C@@H](CCC(=O)O)C(=O)N[C@@H](CO)C(=O)N[C@@H](CC(C)C)C(=O)N[C@@H](CCCCN)C(=O)N[C@@H](CCCCN)C(=O)N[C@H](C(=O)N[C@@H](CCC(=O)O)C(=O)N[C@@H](CCC(=O)O)C(=O)N[C@@H](CO)C(=O)N[C@@H](CC(=O)O)C(=O)N[C@@H](CCCCN)C(=O)N[C@@H](CCCCN)C(=O)N[C@@H](CC(C)C)C(=O)N[C@@H](CCC(=O)O)C(=O)N[C@@H](CCC(=O)O)C(=O)N[C@H](C(=O)N[C@@H](CC(N)=O)C(=O)N[C@@H](CCCCN)C(=O)N[C@@H](CCCCN)C(=O)N[C@@H](CC(C)C)C(=O)N[C@@H](CCC(=O)O)C(=O)N[C@@H](C)C(=O)N[C@@H](C)C(=O)N[C@@H](C)C(=O)N[C@@H](CCCCN)C(=O)N[C@@H](CCCCNC(=O)CCC(=O)OC1CCC2(C)C(=CCC3C2CCC2(C)C(C(C)CCCC(C)C)CCC32)C1)C(N)=O)C(C)C)[C@@H](C)CC)[C@@H](C)CC)C(C)C (stereo partly drawn) [Compound 10] (Ac-KIEEVNKKIEESLKKIEESDKKLEEVNKKLEAAAKK(X1)-NH2) | 0.0181 µM | 1.4 µM
